Measurements reported in publication PMC4164625 (PLoS ONE, 2014).

Key:
yeast Sir2 = settings: cited from earlier work
recombinant human SIRT1 [1] = biological target: T1, recombinant human SIRT1 (Homo sapiens, UniProt Q96EB6); assay: SIRT1 initial-rate inhibition kinetics against NAD+, global nonlinear fitting (Eq. 1); format: biochemical; set-up: purchased Enzo Life Sciences AK 555
T1 sequence (Q96EB6 1-747): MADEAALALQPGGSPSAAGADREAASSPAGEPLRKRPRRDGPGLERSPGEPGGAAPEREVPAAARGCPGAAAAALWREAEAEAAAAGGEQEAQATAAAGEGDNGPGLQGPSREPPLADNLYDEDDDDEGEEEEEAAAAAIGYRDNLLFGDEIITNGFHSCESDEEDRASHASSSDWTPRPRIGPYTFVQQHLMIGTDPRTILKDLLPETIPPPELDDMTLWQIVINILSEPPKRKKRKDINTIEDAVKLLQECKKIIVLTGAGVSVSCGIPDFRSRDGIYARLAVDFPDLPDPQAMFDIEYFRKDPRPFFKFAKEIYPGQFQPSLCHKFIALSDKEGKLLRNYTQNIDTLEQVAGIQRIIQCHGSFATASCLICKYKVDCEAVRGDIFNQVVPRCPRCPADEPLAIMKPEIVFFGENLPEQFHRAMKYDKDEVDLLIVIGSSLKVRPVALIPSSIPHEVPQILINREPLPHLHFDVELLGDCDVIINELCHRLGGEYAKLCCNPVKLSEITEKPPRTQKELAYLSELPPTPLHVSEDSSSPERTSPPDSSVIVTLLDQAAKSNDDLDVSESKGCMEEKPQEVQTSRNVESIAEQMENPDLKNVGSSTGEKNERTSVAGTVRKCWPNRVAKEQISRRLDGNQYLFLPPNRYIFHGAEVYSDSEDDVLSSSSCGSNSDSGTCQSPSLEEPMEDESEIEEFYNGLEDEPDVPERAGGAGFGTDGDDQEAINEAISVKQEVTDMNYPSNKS
Source text: We utilized a novel deacetylation activity assay that generates a fluorescent signal upon deacetylation of a peptide substrate.
Data are globally nonlinear fitted to base exchange inhibition model (Eq. 1) and shown as a double-reciprocal plot of 1/v versus 1/[NAD^+]. In (C) and (D), the intersection points of the double reciprocal plots are enlarged for SIRT1 and SIRT3, respectively.

SIRT5 = settings: cited from earlier work
bacterial Sir2 = settings: cited from earlier work
mouse Sir2 = settings: cited from earlier work
SIRT1 = settings: cited from earlier work
SIRT2 = settings: cited from earlier work
recombinant human SIRT3 [2] = biological target: T2, recombinant human SIRT3 (Homo sapiens, UniProt Q9NTG7); assay: SIRT3 initial-rate inhibition kinetics against NAD+, global nonlinear fitting (Eq. 1 / Eq. 2)
T2 sequence (Q9NTG7 1-399): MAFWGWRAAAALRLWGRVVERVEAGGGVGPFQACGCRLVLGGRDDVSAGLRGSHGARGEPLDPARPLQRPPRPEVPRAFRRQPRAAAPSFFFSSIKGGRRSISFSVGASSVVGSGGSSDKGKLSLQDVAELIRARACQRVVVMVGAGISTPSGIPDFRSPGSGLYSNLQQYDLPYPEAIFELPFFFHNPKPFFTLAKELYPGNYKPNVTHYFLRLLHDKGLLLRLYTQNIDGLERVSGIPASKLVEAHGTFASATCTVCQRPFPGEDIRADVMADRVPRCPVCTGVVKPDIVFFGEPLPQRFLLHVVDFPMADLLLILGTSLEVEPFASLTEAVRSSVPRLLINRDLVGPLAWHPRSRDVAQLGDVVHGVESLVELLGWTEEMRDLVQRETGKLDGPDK

recombinant human SIRT3 [3] = biological target: T2, recombinant human SIRT3; assay: Fluorometric deacetylation assay, IC50 of NAM and isoNAM for SIRT3; format: biochemical; set-up: purchased Creative BioMart; settings: 90 minutes incubation, 1 mM NAD^+ at 37°C (Methods b105: 100 µM NAD^+)
recombinant human SIRT1 [4] = biological target: T1, recombinant human SIRT1; assay: Fluorometric deacetylation assay, IC50 of NAM and isoNAM for SIRT1

Ki (recombinant human SIRT3 [2]; K 2(K i), K2 of Eq. 1 for NAM, Ki of Eq. 2 for isoNAM (in brackets), unit inferred, b71 gives isoNAM Ki≈4.6 mM)	Ki (recombinant human SIRT3 [2]; Ki, from fitting of Eq. 2, as restated in the Discussion)	Inhibition mode with respect to NAD^+ (recombinant human SIRT3 [2]; double reciprocal plot / value of α)	Vmax, model parameter estimate (recombinant human SIRT3 [2]; global nonlinear fit of initial rates with the named inhibitor (Eq. 1 for NAM, Eq. 2 for isoNAM))	Michaelis constant, model parameter estimate (recombinant human SIRT3 [2]; global nonlinear fit of initial rates with the named inhibitor (Eq. 1 for NAM, Eq. 2 for isoNAM), varying NAD^+, saturating peptide, 37°C)	IC50 (recombinant human SIRT3 [3])	IC50 (recombinant human SIRT1 [4])	Compound	IC50 (yeast Sir2)	Vmax, model parameter estimate (recombinant human SIRT1 [1]; global nonlinear fit of initial rates with NAM (Eq. 1))	Michaelis constant, model parameter estimate (recombinant human SIRT1 [1]; global nonlinear fit of initial rates with NAM (Eq. 1), varying NAD^+, saturating peptide, 37°C)	α (recombinant human SIRT1 [1]; mixed inhibition model, K3≡αK2 (Eq. 1))	IC50 (SIRT5)	IC50 (bacterial Sir2)	IC50 (mouse Sir2)	IC50 (SIRT1)	IC50 (SIRT2)
–	–	–	–	–	–	–	NC(=O)c1cccnc1 [NAM, nicotinamide]	120 µM	0.863 µM/min	168.2 µM	0.848	1.6 mM	26 µM	160 µM	50 µM	[…]
4.62 mM	~4.6 mM	competitive inhibitor	0.167 µM/min	1402 µM	13.8 ± 0.5 mM	12.2 ± 0.3 mM	NC(=O)c1ccncc1 [isoNAM, isonicotinamide]	–	–	–	–	–	–	–	–	–
